{"source": "paper PMC5034817", "about": "(Journal of Neurochemistry, 2015)", "molecules": {"B1": {"name": "His6RGS4 (recombinant regulator of G protein signaling 4) (natural protein, UniProt P49799 1-205, looked up)", "chain": "MCKGLAGLPASCLRSAKDMKHRLGFLLQKSDSCEHSSSHSKKDKVVTCQRVSQEEVKKWAESLENLINHECGLAAFKAFLKSEYSEENIDFWISCEEYKKIKSPSKLSPKAKKIYNEFISVQATKEVNLDSCTREETSRNMLEPTITCFDEAQKKIFNLMEKDSYRRFLKSRFYLDLTNPSSCGAEKQKGAKSSADCTSLVPQCA"}, "B2": {"name": "RGS4: recombinant regulator of G protein signaling 4, His6-tagged, expressed in JM109 E. coli (protein)", "chain": "B1 chain", "modifications": "left off: His6, end not stated, kept"}, "B3": {"name": "Goα, endogenous rat brain (natural protein, rat (endogenous in rat brain), UniProt P59215 1-354, looked up)", "chain": "MGCTLSAEERAALERSKAIEKNLKEDGISAAKDVKLLLLGAGESGKSTIVKQMKIIHEDGFSGEDVKQYKPVVYSNTIQSLAAIVRAMDTLGVEYGDKERKADSKMVCDVVSRMEDTEPFSAELLSAMMRLWGDSGIQECFNRSREYQLNDSAKYYLDSLDRIGAADYQPTEQDILRTRVKTTGIVETHFTFKNLHFRLFDVGGQRSERKKWIHCFEDVTAIIFCVALSGYDQVLHEDETTNRMHESLMLFDSICNNKFFIDTSIILFLNKKDLFGEKIKKSPLTICFPEYPGSNTYEDAAAYIQTQFESKNRSPNKEIYCHMTCATDTNNIQVVFDAVTDIIIANNLRGCGLY"}}, "key": {"MOR/G protein complex": {"molecular_target": "MOR/G protein complex (Rattus norvegicus, UniProt P33535)", "sequence (P33535 whole entry, one chain of several)": "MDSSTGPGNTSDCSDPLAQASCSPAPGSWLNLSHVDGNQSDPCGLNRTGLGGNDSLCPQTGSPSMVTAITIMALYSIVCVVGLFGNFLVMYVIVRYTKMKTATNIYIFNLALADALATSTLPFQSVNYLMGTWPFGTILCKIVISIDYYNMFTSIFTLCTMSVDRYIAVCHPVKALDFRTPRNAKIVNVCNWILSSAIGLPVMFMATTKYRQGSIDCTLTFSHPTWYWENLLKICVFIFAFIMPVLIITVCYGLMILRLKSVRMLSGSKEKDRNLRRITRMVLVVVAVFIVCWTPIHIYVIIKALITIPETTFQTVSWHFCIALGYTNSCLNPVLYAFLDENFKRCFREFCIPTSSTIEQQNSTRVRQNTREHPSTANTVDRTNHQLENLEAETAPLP", "assay": "Co-immunoprecipitation of Goα with MOR using anti-MOR349-398", "type": "biochemical", "conditions": "1 µM DAMGO; IP with anti-MOR349-398; Figure S2c"}, "mu opioid receptor": {"molecular_target": "mu opioid receptor (Homo sapiens, UniProt P35372)", "sequence (P35372 whole entry)": "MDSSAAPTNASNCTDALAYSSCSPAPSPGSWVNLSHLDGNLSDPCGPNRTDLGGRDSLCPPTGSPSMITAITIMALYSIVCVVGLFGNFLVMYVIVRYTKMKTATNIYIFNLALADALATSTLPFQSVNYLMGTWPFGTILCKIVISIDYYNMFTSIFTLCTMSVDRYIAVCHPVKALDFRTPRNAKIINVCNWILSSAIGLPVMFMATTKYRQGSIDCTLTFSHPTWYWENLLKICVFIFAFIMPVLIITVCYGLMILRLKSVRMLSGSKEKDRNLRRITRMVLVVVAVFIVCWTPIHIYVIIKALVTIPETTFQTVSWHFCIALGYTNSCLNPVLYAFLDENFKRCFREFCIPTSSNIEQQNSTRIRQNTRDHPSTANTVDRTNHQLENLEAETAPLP", "assay": "biochemical"}, "Goα": {"molecular_target": "Goα (Rattus norvegicus, UniProt P59215)", "assay": "His6RGS4/Ni2+-NTA agarose pull-down of Goα from solubilized rat brain membranes", "type": "biochemical", "conditions": "for effect on association of Goα with His6RGS4: 100 μM GDP or 10 μM GTP alone"}, "[1]": {"molecular_target": "rat mu opioid receptor (MOR)/G protein complex (Rattus norvegicus, UniProt P33535+P59215)", "sequence (P33535 whole entry, one chain of several)": "as the sequence (P33535 whole entry, one chain of several) above", "assay": "Co-immunoprecipitation of Goα and RGS4 with solubilized MOR", "type": "biochemical", "conditions": "for amount of RGS4 co-immunoprecipitated with MOR: 1 μM DAMGO, 0.3 μM RGS4"}, "MOR": {"molecular_target": "MOR (Homo sapiens, UniProt P35372)", "sequence (P35372 whole entry)": "as the sequence (P35372 whole entry) above", "type": "biochemical", "conditions": "presence of 1 μM RGS4"}, "[2]": {"system": "RGS4 mRNA levels in the locus coeruleus", "conditions": "6 days of chronic morphine administration; ref Gold et al. 2003; cited from earlier work"}, "[3]": {"molecular_target": "mu opioid receptor (MOR), endogenous rat brain (rat, UniProt P33535 1-398)", "sequence (P33535 whole entry)": "as the sequence (P33535 whole entry, one chain of several) above", "assay": "co-IP"}, "Go/Gi-type G proteins": {"system": "Go/Gi-type G proteins", "type": "biochemical, human", "conditions": "RGS4 added"}, "[4]": {"molecular_target": "B1", "assay": "pull-down"}}, "note": "Where “and” joins values, the source holds several entries; their conditions need not be identical. Equal values may be shown once. Entries after “also recorded” stand apart in the source; their conditions may differ."}
{"molecule": "C[C@@H](NC(=O)[C@@H](N)Cc1ccc(O)cc1)C(=O)NCC(=O)N(C)[C@@H](Cc1ccccc1)C(=O)NCCO", "note": "[DAMGO, [D‐Ala^2, N‐Me‐Phe^4, Gly^5‐ol] enkephalin]", "values": [{"measurement": "increase in Goα co-immunoprecipitating with MOR", "setting": "MOR/G protein complex", "result": "~2", "unit": "fold"}, {"measurement": "inhibition of forskolin-stimulated adenylyl cyclase activity", "setting": "mu opioid receptor", "result": "21.8% ± 2.27"}, {"measurement": "maximal inhibition, adenylyl cyclase activity reduced to", "setting": "mu opioid receptor", "result": "3.28 pmoles cAMP formed in 10 min and 3.92 pmoles cAMP formed in 10 min"}, {"measurement": "inhibition at 1 µM", "setting": "mu opioid receptor; read-out: inhibition of adenylyl cyclase activity", "result": "60.4 ± 2.97", "unit": "%"}, {"measurement": "effect on binding of Goα to RGS4", "setting": "Goα; 1 μM DAMGO alone, without guanine nucleotide", "result": "did not affect"}, {"measurement": "Goα molecules whose affinity for GDP is decreased by MOR activation", "setting": "Goα; DAMGO with 100 μM GDP and 0.3 μM GTPγS", "result": "40–50%"}, {"measurement": "increase in RGS4 co-immunoprecipitating with MOR", "setting": "[1]; DAMGO during immunoprecipitation vs no addition", "result": "50% and 53%"}, {"measurement": "maximal amount of [35S]GTPγS bound (Bmax)", "setting": "MOR", "result": "1319 ± 82", "unit": "dpm"}]}
{"molecule": "Nc1nc2c(ncn2[C@@H]2O[C@H](COP(=O)(O)OP(=O)(O)O)[C@@H](O)[C@H]2O)c(=O)[nH]1", "note": "[GDP]", "values": [{"measurement": "effect on association of Goα with His6RGS4", "setting": "Goα", "result": "failed to affect; also recorded: Neither 100 μM GDP nor 10 μM GTP affected; also recorded: neither GTP nor GDP had an effect"}, {"measurement": "effect on GTPγS-enhanced Goα binding to RGS4", "setting": "Goα; 100 μM GDP with 0.3 μM GTPγS", "result": "blocked this effect; also recorded: prevented; also recorded: return to the control level"}]}
{"molecule": "Nc1nc2c(ncn2[C@@H]2O[C@H](COP(=O)(O)OP(=O)(O)OP(=O)(O)O)[C@@H](O)[C@H]2O)c(=O)[nH]1", "note": "[GTP]", "values": [{"measurement": "effect on association of Goα with His6RGS4", "setting": "Goα", "result": "failed to affect; also recorded: Neither 100 μM GDP nor 10 μM GTP affected; also recorded: neither GTP nor GDP had an effect"}, {"measurement": "effect on amount of Goα associated with MOR", "setting": "[1]; 10 μM GTP added to DAMGO vs DAMGO alone", "result": "did not alter"}, {"measurement": "additional increase in RGS4 co-immunoprecipitating with MOR", "setting": "[1]; 10 μM GTP with 1 μM DAMGO vs DAMGO alone", "result": "72% and 71.6%"}]}
{"molecule": "CN1CC[C@]23c4c5ccc(O)c4O[C@H]2[C@@H](O)C=C[C@H]3[C@H]1C5", "note": "[morphine]", "values": [{"measurement": "RGS4 mRNA levels in the locus coeruleus", "setting": "[2]", "result": "doubled"}]}
{"molecule": "B1", "values": [{"measurement": "stoichiometry N", "setting": "[3]", "result": "~1"}]}
{"molecule": "B2", "values": [{"measurement": "effect on GTPγS-mediated inhibition of adenylyl cyclase activity", "setting": "Go/Gi-type G proteins", "result": "failed to attenuate; also recorded: failed to affect; also recorded: had no effect"}, {"measurement": "amount of RGS4 co-immunoprecipitated with MOR", "setting": "[1]; absence of GTPγS", "result": "9 ± 1.1", "unit": "fmol"}, {"measurement": "amount of RGS4 co-immunoprecipitated with MOR", "setting": "[1]; presence of 1 μM GTPγS", "result": "28 fmol and 28.4 ± 5.4 fmol"}, {"measurement": "ratio of MOR to RGS4 in the immunoprecipitate", "setting": "[1]; presence of GTPγS", "result": "1–1"}]}
{"molecule": "B3", "values": [{"measurement": "fold increase of Goα bound to His6RGS4 with 0.3 uM GTPγS against control", "setting": "[4]", "result": "~3", "unit": "fold"}]}
